Where a name gives a salt, the structure may show the parent alone.
Columns and labels:
CD8^+ cells = test: Growth ability of spleen CD8+ cells after anti-CD3 stimulation (3H incorporation test), CMC-1 tumor-bearing mice; format: in vivo, BALB/c mice; conditions: i.p. 30 days after CMC-1 inoculation (GEM; CY 60 mg/kg; 5-FU 120 mg/kg); spleen CD8+ cells after 48 hours; 60 hours immobilized anti-CD3 2 μg/ml; FIG. 3
Protocol: (§1) GEM was administered to the tumor-bearing mice 30 days after CMC-1 inoculation, and after 48 hours the absolute number of respective cell populations in the spleen were analyzed by flow cytometry. Cyclophosphamide (CY) (60 mg/kg), fluoro-5-uracil (5-FU) (120 mg/kg), or GEM was intraperitoneally administered to tumor-bearing mice 30 days after CMC-1 inoculation. After 48 hours, CD8^+ cells were isolated from the spleen, and the growth ability after 60 hours of stimulation with immobilized anti-CD3 antibody (2 μg/ml) was assessed by ^3H incorporation test.

[1] = system: methylcholanthrene-induced squamous cancer CMC-1; test: Antitumor effect of GEM in CMC-1-inoculated mice (tumor growth); format: in vivo; conditions: CMC-1 intradermal in BALB/c mice; 120 mg/kg i.p. every week from day 5; FIG. 1
Protocol: Cell line of methylcholanthrene-induced squamous cancer CMC-1 (2×10^6 cells) was intradermally inoculated to BALB/c mice, and from day 5 after inoculation, GEM (Gemzar: gemcitabine hydrochloride) was intraperitoneally administered at 120 mg/kg every week. The tumor growth was measured every two days to evaluate the antitumor effect of GEM.

immunosuppressive cells = test: Flow cytometry of the absolute number of cell populations in the spleen of CMC-1 tumor-bearing mice; format: in vivo, BALB/c mice; conditions: tumor-bearing mice 30 days after CMC-1 inoculation; 48 hours after administration; FIG. 2
Protocol: as §1

CD8^+ T cells = test: Tumor diameter with GEM and anti-CD8 antibody (CMC-1); proportion of OVA-specific CD8+ cytotoxic T cells (LLC-OVA); format: in vivo, BALB/c mice; C57BL6 mice; conditions: GEM 120 mg/kg i.p.; anti-CD8 antibody 250 μg i.v. every three days (CMC-1); OVA-specific CD8+ CTL in regional lymph nodes (LLC-OVA); FIG. 4, 5
Protocol: CMC-1 (2×10^6) was intradermally inoculated to BALB/c mice. From day 5 after inoculation, GEM (120 mg/kg) was intraperitoneally administered every week and anti-CD8 antibody (250 μg) was intravenously administered every three days. The tumor diameter was measured every two days. LLC-OVA (2×10^6) prepared by introducing the ovalbumin (OVA) gene into mouse lung cancer cell line LLC was intradermally inoculated to C57BL6 mice, and after five days GEM (120 mg/kg) was intraperitoneally administered. After nine days, the regional lymph nodes were collected and assessed by flow cytometry for the proportion of OVA-specific CD8^+ cytotoxic T cells.

SMILES | growth-enhancing effect for CD8+ T cells (CD8^+ cells) | tumor growth-suppressive effect [1] | elimination of immunosuppressive cells in the spleen (immunosuppressive cells) | antitumor effect through CD8+ T cell activity (CD8^+ T cells)
O=c1[nH]cc(F)c(=O)[nH]1 [5-FU, fluoro-5-uracil] | not observed |  |  | 
O=P1(N(CCCl)CCCl)NCCCO1 (stereo not drawn) [CY, Cyclophosphamide] | not observed |  |  | 
Nc1ccn([C@@H]2O[C@H](CO)[C@@H](O)C2(F)F)c(=O)n1 [GEM, gemcitabine hydrochloride] | excellent growth-enhancing effect for CD8^+ T cells | tumor growth-suppressive effect | eliminates immunosuppressive cells | produces the antitumor effect by enhancing the activity of CD8^+ T cells
